Literature values, collected in patent US20080003281A1, “Modified Release Tablet Formulations for Proton Pump Inhibitors” (ASTRAZENECA AB, priority 2004, published 2008).

Tested on: gastric acid
Settings: 40 mg esomeprazole dose split into 20 mg bid

In the case of `COc1ccc2nc([S@@+]([O-])Cc3ncc(C)c(OC)c3C)[nH]c2c1` [esomeprazole, (−)-enantiomer of omeprazole], the “nocturnal gastric acid suppression” value is listed as “significantly improved”.
